Experimental findings from ChEMBL document CHEMBL5715954, “Silencing c-Myc translation as a therapeutic strategy through targeting PI3Kδ and CK1ε in hematological malignancies” (Blood, 2017) are described below.

Set-up in all cases: scale not given: the % may be the effect or the level left
In assay [1] the target is Glycogen synthase kinase-3 beta (Homo sapiens) (UniProt P49841). The assay is described as follows: Inhibition of human GSK3b assessed as enzyme activity at 1 uM using YRRAAVPPSPSLSRHSSPHQ(pS)EDEEE as substrate preincubated for 20 mins followed by [gamma-33P]-ATP addition and measured after 120 mins by radiometric Hot-SpotSM Kinase assay relative to control.
For assay [2], the target named is CDK9/Cyclin K (Homo sapiens) (UniProt P50750+O75909). The assay is described as follows: Inhibition of human CDK9/cyclin K assessed as enzyme activity at 1 uM using KTFCGTPEYLAPEVRREPRILSEEEQEMFRDFDYIADWC as substrate preincubated for 20 mins followed by [gamma-33P]-ATP addition and measured after 120 mins by radiometric Hot-SpotSM Kinase assay relative to control. Format: protein-complex assay.

In assay [3] the target is Serine/threonine-protein kinase MARK2 (Homo sapiens) (UniProt Q7KZI7). The assay is described as follows: Inhibition of human PAR-1Ba assessed as enzyme activity at 1 uM using KKKVSRSGLYRSPSMPENLNRPR as substrate preincubated for 20 mins followed by [gamma-33P]-ATP addition and measured after 120 mins by radiometric Hot-SpotSM Kinase assay relative to control.
Chain of Serine/threonine-protein kinase MARK2 (Homo sapiens) (Q7KZI7 whole entry): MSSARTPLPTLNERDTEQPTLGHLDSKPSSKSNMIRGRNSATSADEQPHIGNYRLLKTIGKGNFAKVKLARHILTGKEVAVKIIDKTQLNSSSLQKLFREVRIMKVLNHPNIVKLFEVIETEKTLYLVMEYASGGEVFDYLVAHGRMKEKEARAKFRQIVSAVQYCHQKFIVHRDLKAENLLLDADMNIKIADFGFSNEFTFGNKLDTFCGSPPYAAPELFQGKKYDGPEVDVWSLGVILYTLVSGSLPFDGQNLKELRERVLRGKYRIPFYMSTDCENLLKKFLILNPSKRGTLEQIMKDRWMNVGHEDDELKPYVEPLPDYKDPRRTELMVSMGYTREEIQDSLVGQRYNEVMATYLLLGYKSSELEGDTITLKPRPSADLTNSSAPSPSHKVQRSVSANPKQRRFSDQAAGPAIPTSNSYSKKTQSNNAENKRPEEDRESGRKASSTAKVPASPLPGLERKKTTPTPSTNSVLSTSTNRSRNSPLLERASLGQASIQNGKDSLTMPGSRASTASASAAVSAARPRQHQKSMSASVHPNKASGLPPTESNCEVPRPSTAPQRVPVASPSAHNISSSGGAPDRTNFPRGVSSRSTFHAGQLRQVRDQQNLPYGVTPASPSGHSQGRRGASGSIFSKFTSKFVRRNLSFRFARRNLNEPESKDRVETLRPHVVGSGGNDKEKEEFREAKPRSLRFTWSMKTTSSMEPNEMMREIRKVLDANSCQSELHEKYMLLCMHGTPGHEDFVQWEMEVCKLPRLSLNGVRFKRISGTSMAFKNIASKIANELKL
Assay [4] deals with CDK2/Cyclin A1 (Homo sapiens) (UniProt P24941+P78396). The assay is described as follows: Inhibition of human CDK2/Cyclin A1 assessed as enzyme activity at 1 uM using RB Protein as substrate preincubated for 20 mins followed by [gamma-33P]-ATP addition and measured after 120 mins by radiometric Hot-SpotSM Kinase assay relative to control. Format: protein-complex assay.
The target of assay [5] is Casein kinase I isoform gamma-2 (Homo sapiens) (UniProt P78368). Nature of the assay: Inhibition of human CK1g2 assessed as enzyme activity at 1 uM using KRRRAL[pS]VASLPGL as substrate preincubated for 20 mins followed by [gamma-33P]-ATP addition and measured after 120 mins by radiometric Hot-SpotSM Kinase assay relative to control.
Chain of Casein kinase I isoform gamma-2 (Homo sapiens) (P78368 whole entry, looked up, canonical isoform): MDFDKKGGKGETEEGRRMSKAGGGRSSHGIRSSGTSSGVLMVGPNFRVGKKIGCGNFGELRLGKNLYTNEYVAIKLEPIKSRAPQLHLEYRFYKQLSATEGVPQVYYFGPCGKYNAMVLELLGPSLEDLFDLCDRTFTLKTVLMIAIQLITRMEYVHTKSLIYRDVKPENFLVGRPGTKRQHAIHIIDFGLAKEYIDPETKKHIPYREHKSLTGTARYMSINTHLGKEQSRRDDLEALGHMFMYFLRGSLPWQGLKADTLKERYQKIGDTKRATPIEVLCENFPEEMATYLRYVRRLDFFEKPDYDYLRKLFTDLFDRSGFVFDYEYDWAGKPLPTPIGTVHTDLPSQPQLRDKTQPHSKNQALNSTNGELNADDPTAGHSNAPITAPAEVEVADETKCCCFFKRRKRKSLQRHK
Assay [6] has as its target Serine/threonine-protein kinase PLK3 (Homo sapiens) (UniProt Q9H4B4). Nature of the assay: Inhibition of human PLK3 assessed as enzyme activity at 1 uM using casein as substrate preincubated for 20 mins followed by [gamma-33P]-ATP addition and measured after 120 mins by radiometric Hot-SpotSM Kinase assay relative to control.
Assay [7] concerns the target T1, Mitogen-activated protein kinase 13 (Homo sapiens) (UniProt O15264).
T1 sequence (whole entry): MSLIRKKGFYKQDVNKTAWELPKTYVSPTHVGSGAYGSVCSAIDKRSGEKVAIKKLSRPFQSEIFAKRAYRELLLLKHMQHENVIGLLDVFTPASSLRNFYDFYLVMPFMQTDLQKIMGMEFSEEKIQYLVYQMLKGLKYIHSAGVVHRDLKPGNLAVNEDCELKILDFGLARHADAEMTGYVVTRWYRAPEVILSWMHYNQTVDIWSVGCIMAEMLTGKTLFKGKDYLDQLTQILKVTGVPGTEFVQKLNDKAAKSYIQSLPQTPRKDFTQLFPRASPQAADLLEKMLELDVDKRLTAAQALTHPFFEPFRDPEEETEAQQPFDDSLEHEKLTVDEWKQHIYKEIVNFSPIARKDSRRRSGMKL
Nature of the assay: Inhibition of human P38d assessed as enzyme activity at 1 uM using myelin basic protein as substrate preincubated for 20 mins followed by [gamma-33P]-ATP addition and measured after 120 mins by radiometric Hot-SpotSM Kinase assay relative to control.

For assay [8], the target named is Serine/threonine-protein kinase N1 (Homo sapiens) (UniProt Q16512). The assay is described as follows: Inhibition of human PKN1 assessed as enzyme activity at 1 uM using KKLNRTLSVA as substrate preincubated for 20 mins followed by [gamma-33P]-ATP addition and measured after 120 mins by radiometric Hot-SpotSM Kinase assay relative to control.
Chain of Serine/threonine-protein kinase N1 (Homo sapiens) (Q16512 2-942 limits assumed): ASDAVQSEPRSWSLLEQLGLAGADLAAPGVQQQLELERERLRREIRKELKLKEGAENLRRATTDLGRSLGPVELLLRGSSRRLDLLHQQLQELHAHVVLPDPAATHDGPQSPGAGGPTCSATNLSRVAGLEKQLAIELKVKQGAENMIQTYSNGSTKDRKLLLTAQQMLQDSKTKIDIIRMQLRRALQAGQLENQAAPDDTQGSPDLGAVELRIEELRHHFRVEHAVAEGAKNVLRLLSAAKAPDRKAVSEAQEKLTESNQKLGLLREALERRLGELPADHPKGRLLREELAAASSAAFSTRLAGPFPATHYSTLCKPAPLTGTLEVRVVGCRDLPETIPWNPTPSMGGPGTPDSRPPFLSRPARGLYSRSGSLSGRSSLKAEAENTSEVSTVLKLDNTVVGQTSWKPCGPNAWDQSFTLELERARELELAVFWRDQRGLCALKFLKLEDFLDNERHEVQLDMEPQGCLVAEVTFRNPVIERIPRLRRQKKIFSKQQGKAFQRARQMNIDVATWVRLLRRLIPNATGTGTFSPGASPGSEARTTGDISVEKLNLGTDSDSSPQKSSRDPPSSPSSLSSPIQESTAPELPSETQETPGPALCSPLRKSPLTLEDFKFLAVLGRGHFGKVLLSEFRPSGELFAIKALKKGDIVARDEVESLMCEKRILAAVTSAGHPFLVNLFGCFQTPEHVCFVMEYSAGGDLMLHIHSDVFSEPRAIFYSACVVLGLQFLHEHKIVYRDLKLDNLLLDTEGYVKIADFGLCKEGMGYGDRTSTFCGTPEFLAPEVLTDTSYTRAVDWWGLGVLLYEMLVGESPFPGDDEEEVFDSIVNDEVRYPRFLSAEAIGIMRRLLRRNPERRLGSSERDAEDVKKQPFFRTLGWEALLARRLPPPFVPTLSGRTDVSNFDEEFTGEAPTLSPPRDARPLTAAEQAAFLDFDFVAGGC
The target of assay [9] is Citron Rho-interacting kinase (Homo sapiens) (UniProt O14578). The assay is described as follows: Inhibition of human STK21 assessed as enzyme activity at 1 uM using KKRPQRRYSNVF as substrate preincubated for 20 mins followed by [gamma-33P]-ATP addition and measured after 120 mins by radiometric Hot-SpotSM Kinase assay relative to control.
Chain of Citron Rho-interacting kinase (Homo sapiens) (O14578 whole entry): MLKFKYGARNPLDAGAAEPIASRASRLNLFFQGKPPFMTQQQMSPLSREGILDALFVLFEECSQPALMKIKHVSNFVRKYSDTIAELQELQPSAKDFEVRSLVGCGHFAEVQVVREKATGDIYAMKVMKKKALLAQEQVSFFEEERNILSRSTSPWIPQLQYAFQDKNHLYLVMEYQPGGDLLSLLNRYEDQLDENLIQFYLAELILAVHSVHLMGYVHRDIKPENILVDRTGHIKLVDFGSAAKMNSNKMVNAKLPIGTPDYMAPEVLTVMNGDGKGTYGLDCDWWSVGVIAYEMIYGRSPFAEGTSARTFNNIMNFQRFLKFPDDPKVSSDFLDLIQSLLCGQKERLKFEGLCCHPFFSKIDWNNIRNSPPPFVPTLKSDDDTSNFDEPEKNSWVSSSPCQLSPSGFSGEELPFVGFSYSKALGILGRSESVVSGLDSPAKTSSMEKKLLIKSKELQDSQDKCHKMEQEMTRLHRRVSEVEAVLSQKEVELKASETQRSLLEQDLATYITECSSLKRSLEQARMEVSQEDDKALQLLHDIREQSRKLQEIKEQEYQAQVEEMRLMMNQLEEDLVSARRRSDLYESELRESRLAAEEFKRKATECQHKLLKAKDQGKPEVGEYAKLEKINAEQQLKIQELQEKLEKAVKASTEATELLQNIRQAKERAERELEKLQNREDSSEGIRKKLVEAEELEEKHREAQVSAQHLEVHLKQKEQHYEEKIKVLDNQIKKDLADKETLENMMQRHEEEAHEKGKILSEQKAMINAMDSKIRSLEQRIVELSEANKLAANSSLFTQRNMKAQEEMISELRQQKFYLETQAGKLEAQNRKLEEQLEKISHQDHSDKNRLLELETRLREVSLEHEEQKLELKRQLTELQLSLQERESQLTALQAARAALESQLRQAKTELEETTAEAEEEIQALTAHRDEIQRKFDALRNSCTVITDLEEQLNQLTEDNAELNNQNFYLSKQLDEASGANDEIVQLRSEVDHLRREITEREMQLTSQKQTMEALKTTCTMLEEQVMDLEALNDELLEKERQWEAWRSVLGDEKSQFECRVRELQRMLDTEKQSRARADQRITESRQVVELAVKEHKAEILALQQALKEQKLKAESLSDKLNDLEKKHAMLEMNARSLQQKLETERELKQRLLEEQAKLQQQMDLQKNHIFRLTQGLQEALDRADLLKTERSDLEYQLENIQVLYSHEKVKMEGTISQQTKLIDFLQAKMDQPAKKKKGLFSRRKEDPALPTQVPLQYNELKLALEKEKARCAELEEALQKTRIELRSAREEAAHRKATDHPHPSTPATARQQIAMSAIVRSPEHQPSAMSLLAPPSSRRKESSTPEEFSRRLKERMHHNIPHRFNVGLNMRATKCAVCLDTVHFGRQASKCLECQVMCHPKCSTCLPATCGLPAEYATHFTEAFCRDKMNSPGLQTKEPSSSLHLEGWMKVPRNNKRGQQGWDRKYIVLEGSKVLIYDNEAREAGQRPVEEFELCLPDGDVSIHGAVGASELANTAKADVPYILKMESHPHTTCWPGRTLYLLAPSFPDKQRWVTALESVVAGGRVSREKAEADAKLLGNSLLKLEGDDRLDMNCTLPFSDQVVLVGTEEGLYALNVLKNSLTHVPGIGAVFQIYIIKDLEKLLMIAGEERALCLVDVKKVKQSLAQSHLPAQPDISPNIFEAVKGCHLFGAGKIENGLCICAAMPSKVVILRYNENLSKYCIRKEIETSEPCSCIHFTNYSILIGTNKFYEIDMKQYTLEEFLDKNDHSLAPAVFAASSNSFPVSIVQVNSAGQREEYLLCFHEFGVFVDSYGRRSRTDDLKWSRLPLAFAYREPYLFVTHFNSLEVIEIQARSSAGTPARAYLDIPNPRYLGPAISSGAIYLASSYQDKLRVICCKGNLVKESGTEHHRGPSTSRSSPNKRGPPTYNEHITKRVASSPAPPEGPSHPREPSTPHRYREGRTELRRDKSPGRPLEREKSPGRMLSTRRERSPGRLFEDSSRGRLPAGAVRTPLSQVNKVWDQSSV
For assay [10], the target named is Tau-tubulin kinase 2 (Homo sapiens) (UniProt Q6IQ55). The assay is described as follows: Inhibition of human TTBK2 assessed as enzyme activity at 1 uM using myelin basic protein as substrate preincubated for 20 mins followed by [gamma-33P]-ATP addition and measured after 120 mins by radiometric Hot-SpotSM Kinase assay relative to control.
In assay [11] the target is T2, Bone morphogenetic protein receptor type-2 (Homo sapiens) (UniProt Q13873).
T2 sequence (whole entry): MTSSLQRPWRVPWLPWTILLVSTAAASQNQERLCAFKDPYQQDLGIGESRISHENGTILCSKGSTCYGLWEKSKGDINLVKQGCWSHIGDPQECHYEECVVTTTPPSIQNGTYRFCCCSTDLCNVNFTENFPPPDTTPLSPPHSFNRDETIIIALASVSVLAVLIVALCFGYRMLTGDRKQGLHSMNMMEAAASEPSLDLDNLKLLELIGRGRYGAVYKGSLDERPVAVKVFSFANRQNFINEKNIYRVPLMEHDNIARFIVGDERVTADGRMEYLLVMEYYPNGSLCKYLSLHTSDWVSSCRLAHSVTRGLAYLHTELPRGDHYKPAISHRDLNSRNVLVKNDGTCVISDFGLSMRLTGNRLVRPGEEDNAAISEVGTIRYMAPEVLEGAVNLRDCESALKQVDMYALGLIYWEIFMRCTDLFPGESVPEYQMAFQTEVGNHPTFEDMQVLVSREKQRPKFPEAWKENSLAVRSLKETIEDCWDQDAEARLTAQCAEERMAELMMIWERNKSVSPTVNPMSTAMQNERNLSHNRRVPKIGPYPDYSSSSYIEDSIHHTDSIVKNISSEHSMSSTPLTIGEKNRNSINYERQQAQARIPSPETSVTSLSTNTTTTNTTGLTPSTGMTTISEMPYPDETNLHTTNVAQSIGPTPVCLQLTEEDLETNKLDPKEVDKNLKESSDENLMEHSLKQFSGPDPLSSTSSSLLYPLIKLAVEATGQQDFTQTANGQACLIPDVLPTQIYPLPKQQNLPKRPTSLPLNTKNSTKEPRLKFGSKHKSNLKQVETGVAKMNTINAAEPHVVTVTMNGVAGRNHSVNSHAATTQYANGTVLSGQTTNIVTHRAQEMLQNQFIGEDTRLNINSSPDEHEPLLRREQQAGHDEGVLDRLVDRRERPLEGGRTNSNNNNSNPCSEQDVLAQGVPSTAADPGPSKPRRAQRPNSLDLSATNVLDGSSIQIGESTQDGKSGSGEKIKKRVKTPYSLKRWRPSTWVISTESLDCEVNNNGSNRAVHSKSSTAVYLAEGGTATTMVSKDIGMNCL
Nature of the assay: Inhibition of human BMPR2 assessed as enzyme activity at 1 uM using myelin basic protein as substrate preincubated for 20 mins followed by [gamma-33P]-ATP addition and measured after 120 mins by radiometric Hot-SpotSM Kinase assay relative to control.

Chain of Serine/threonine-protein kinase PLK3 (Homo sapiens) (Q9H4B4 whole entry, looked up): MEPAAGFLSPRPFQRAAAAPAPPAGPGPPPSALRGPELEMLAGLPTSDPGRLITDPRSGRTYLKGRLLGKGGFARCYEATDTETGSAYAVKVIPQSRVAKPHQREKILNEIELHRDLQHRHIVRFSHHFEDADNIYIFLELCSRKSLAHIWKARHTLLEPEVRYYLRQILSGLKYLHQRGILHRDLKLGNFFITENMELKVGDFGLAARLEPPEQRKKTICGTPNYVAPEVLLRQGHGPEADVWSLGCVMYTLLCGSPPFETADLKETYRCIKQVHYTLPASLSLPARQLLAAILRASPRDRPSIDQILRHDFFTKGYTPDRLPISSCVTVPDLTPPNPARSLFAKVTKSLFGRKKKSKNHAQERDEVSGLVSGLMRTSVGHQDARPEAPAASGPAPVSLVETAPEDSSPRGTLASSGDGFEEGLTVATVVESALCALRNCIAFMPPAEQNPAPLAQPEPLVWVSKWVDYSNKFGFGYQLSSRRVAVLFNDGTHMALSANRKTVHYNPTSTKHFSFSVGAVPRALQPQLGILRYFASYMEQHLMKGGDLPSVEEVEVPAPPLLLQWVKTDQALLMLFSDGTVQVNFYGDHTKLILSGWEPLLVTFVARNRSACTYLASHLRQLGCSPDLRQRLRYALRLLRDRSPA

Take `C[C@H](Nc1ncnc2nc[nH]c12)c1cc2cccc(Cl)c2c(=O)n1-c1ccccc1`: the Activity amounted to 113% in assay [1]; 93.1% in assay [2]; 95.8% in assay [3]; 79.7% in assay [4]; 98.5% in assay [5]; 95.1% in [6]. In addition, the Activity in [7] stood at 105%; in assay [8] it was 84%; in assay [9] it was 93.5%; in [10], 95.8%; in [11], 103%.

Consider `CC[C@H](Nc1ncnc2[nH]cnc12)c1nc2cccc(F)c2c(=O)n1-c1ccccc1`, for which the Activity in [1] amounted to 114%; in assay [2], 91.5%; in [3] it was 94.3%; in assay [4], 86.7%; in assay [5], 99.7%; in assay [6], 98.4%. Also, the Activity in assay [7] is 96.5%; in assay [8], 90.5%; in assay [9] it was 101%; in assay [10] it was 90.6%; in assay [11] it was 107%.

In the case of `CC(C)Oc1ccc(-c2nn([C@@H](C)c3oc4ccc(F)cc4c(=O)c3-c3cccc(F)c3)c3ncnc(N)c23)cc1F` [UMBRALISIB], the Activity in [1] was found to be 111%; in assay [2] it was 88.8%; in assay [3], 99.7%; in assay [4] it was 78%; in assay [5], 104%; in assay [6], 96.7%. Moreover, the Activity in assay [7] stood at 104%; in assay [8], 92.8%; in assay [9] it was 113%; in [10], 96.7%; in assay [11] it was 107%.
